What was measured:
L0 CSCs = assay: Extreme limiting dilution assay (ELDA) in L0; type: cell-based, human; conditions: 14 days
Description: (§1) L0 and DI318 CSCs were split with Accutase as single cells into NBMc. In total, 200 μL of CSCs were seeded into each well of a 96-well TC treated plate (n = 10 well per density) at 50, 25, 13, 6, 3, and 1.5 cells/well. […] The stem cell frequency was quantified and treatments were compared with DMSO as described by Hu and Smyth ([98]).

WDR5 [1] = target: T1, WDR5 (Homo sapiens, UniProt P61964); assay: WDR5 live cell CETSA in intact L0 CSCs (melting curve, isothermal Kd, washout); type: cell-based; design: we first used a cellular thermal shift (CETSA) assay in intact L0 CSCs; endogenous in cells; host or cells: L0 patient-derived GBM CSCs
Description: In total, 500,000 L0 CSCs, grown in suspension as spheroids, were split with Accutase and seeded in 1 mL of NBMc into each well of a 24-well dish. […] Cells were harvested by centrifugation (5 minutes, 500g) into SafeLock tubes (Eppendorf), washed once with 400 μL of PBS, and resuspended in 25 μL of CETSA Buffer (PBS + 1X Roche cOmplete Protease Inhibitor Cocktail + 3X Benzonase). […] One DMSO-treated sample was left unheated (representing 100% abundance i.e., fully bound) and 1 DMSO-treated sample was heated to 70°C (representing 0% abundance i.e., fully unbound). After heating, samples were lysed by 6X freeze-thaw cycles in LN2/hot water, rested for 10 minutes at room temperature, and then centrifuged for 30 minutes at > 14,000g at 4°C. 20 μL of the supernatant was transferred to a fresh tube into 5 μL of SDS-PAGE Loading Dye, boiled, and separated on 4%–20% Mini-PROTEAN Precast TGX Gels (Biorad). […] For CETSA washout experiments, a 10 cm dish with 6 × 10^6 to 8 × 10^6 L0 cells was treated for 2 hours with 5 μM compound or DMSO, washed 3 times with 15 mL of PBS (3 min, 400g), and split into 10 × 1 mL of fresh NBMc in a 24-well dish.

Brain homogenate binding = type: in vitro ADME; conditions: human brain homogenate; read-out: BHB %fu (h)
Description: both the protein side and buffer side of the membrane after incubation and the parent compound was quantified. Brain homogenate binding was performed similarly as above using human brain homogenate, equilibrium dialysis, and LC-MS/MS methods. Fraction unbound is calculated by dividing the concentration of the buffer side by the concentration of the matrix side (plasma or brain). […]

5 different CSC models = assay: 7-day CTG viability / cross-titration, panel of 5 CSC models; type: cell-based, human; conditions: Homo sapiens; 7-day assay, 5 CSC models
Description: For GI50 determination, compounds were stamped in technical triplicate, while for synergy cross-titrations dose-response matrices were prepared in technical duplicate. Different CSC lines, grown in suspension as spheroids, were split with Accutase and seeded directly on top of the prestamped compounds (50 μL of NBMc and 700 cells/well). The outer 4 rows (A,B and O,P row IDs) and 4 columns (1,2 and 23,24 column IDs) were filled with 80 μL of PBS to minimize evaporation. Cells were incubated with compounds for 7 days at 37°C/5% CO2 prior to the addition of 25 μL/well Cell-Titer Glo (Promega) and luminescence quantification on a Revvity EnVision plate reader. […] For the cross-titrations of 2 compounds, synergy scores were calculated using the MuSyC webserver ([79]).

DI318 flank PDX tumors [2] = assay: ELDA of cells dissociated from DI318 flank tumors; type: in vivo, NSG mice; conditions: 30 mg/kg once a day i.p. over 7 days
Description: as §1
(1 picture or pasted object on this page, not shown here)

DI318 flank PDX tumors [3] = assay: DI318 flank xenograft, tumor volume; type: in vivo, NSG mice; conditions: 30 mg/kg once a day i.p. over 7 days
Description: (A) NOD-scid (NSG) mice were inoculated subcutaneously in the right flank with 2 × 10⁶ DI318 CSCs suspended in 100 μL of PBS:Matrigel (1:1). Over the next 6-7 days tumors developed to the point where a small mass was visual. A digital caliper measurement (length and width) were taken to get a baseline tumor size. Mice
Compounds were formulated in 20% HP β-cyclodextrin (BCD) and administered once daily via IP injection at 30 mg/kg for 7 consecutive days.
Endpoint ellipsoid tumor volume was calculated and compared using a t-test.

DI318 CSCs = assay: Extreme limiting dilution assay (ELDA) in DI318; type: cell-based, human; conditions: 14 days
Description: as §1

WDR5-target genes = assay: RT-qPCR of WDR5-target genes in frozen DI318 flank tumor samples; type: in vivo, NSG mice; conditions: 30 mg/kg once a day i.p. over 7 days
[4] = tested on: intracranial L0 PDX tumors; assay: Long-term intracranial L0 xenograft; type: in vivo; conditions: 30 mg/kg once a day i.p.
Description: Briefly, L0 cells were intracranial injected into 6–12 week old NSG mice. Once fully anesthetized, mice were secured into a stereotaxic apparatus and 20,000 L0 Cells were injected into the left hemisphere 0.5 mm rostral and 1.8 mm lateral to the b4regma with 3.5 mm depth from the scalp. […] Animals were monitored over time for the presentation of neurological and behavioral symptoms at which time the animals were humanely euthanized. Survival analysis was completed using PRISM 9.1.2 and comparison were made using Log-Rank (Mantel-Cox) test.

[5] = Plasma protein binding (equilibrium dialysis), rat; type: in vitro ADME; conditions: read-out: PPB % fu (r)
Description: both the protein side and buffer side of the membrane after incubation and the parent
compound was quantified. […]

WDR5 [6] = target: T1, WDR5; design: human WDR5 residues Ser22-Cys334 were codon optimized for E. coli; made in house; host or cells: E. coli T7 Express lysY/Iq (New England Biolabs), pET27 plasmid; conditions: read-out: direct WDR5 Ki; cited from earlier work
MV4:11 = conditions: read-out: MV4:11 GI50; cited from earlier work

SMILES	L0 ELDA stem cell frequency (1 in N) (L0 CSCs; 20 nM)	L0 ELDA stem cell frequency (1 in N) (L0 CSCs; 200 nM)	L0 ELDA stem cell frequency (1 in N) (L0 CSCs; 2000 nM)	time remaining bound to WDR5 after washout (WDR5 [1]; L0 CSCs, 5 μM for 2 hours, then washout)	Kd (WDR5 [1]; L0 CSCs, 2-hour pretreatment, isothermal 70°C) [nM]	fraction unbound at […] (Brain homogenate binding)	GI50 (5 different CSC models) [nM]	effect on stem cell frequency of treated tumors (DI318 flank PDX tumors [2])	effect on tumor growth (DI318 flank PDX tumors [3])	DI318 ELDA stem cell frequency (1 in N) (DI318 CSCs; 20 nM)	DI318 ELDA stem cell frequency (1 in N) (DI318 CSCs; 200 nM)	DI318 ELDA stem cell frequency (1 in N) (DI318 CSCs; 2000 nM)	downregulation of WDR5-target genes in treated tumors (WDR5-target genes)	effect on survival [4]	tolerability ([4]; up to 71 days)	survival in L0 Intracranial Xenograft (Kaplan-Meier) ([4]; vehicle 72 days) [days]	fraction unbound at […] [5]	Ki (WDR5 [6]) [nM]	ΔTm at 10 µM (WDR5 [1]; L0 cells, 10 μM, 2 hours) [°C]	GI50 (MV4:11) [nM]
COc1cc(Cn2nnc3c2CCc2c(-c4cn(C)nc4C(F)(F)F)cc(Cn4ccnc4C)cc2-3)cc(OC)c1 [C3TD078]	1.3	2.2	2.1	at least 21 hours	2	0.004	1000 to 5000	did not reduce tumor growth or affect stem cell frequency	did not reduce tumor growth	1.6	2.1	2.2	did not downregulate WDR5-target genes in treated tumors							
COc1cc(Cn2nnc3c2CCc2c-3cc(Cn3ccnc3C)cc2C2CC2)ccc1F [C3TD343]						0.005								no effect on survival	well tolerated	71	0.027			
COc1cc(CN2CCc3c(cc(Cn4ccn(C)c4=N)cc3-c3ccc(F)cc3C)C2=O)cc(OC)c1 [C16, reference compound]							1000 to 5000										0.008	< 0.02	35	38

— article PMC13313556, “Development and characterization of triazole-based WDR5 inhibitors for the treatment of glioblastoma” (JCI Insight, 2026)
